Target: neuraminidase
Test: Inhibition kinetics
Type: biochemical, influenza virus
Conditions: decrease in Vmax while Km remained stable

Compound	Kinetic mode
CC1=CC(=O)C2(O1)C(c1cc3oc(=O)c4cc(O)c(O)cc4c3c(=O)o1)=Cc1cc(O)c(O)cc12 (centres unmarked) [compound 1, phelligridin E]	noncompetitive
O=C1C=C(/C=C/c2ccc(O)c(O)c2)OC12C(c1cc3oc(=O)c4cc(O)c(O)cc4c3c(=O)o1)=Cc1cc(O)c(O)cc12 (centres unmarked) [compound 2, phelligridin G]	noncompetitive

Source: paper PMC4945539 (Mycobiology, 2016)
